From the METLIN SMRT retention time set (Domingo-Almenara et al. 2019)

Assay: gradient 5% acetonitrile 3 min, to 50% in 2 min, to 85% in 15 min, held 3 min, 100 µL/min
Conditions: column: Zorbax Extend-C18 2.1 x 50 mm; eluents: water / acetonitrile, 0.1% formic acid
Summary of the method: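 Mixtures of ~100 pure standards were chromatographed on a Zorbax Extend-C18 column (2.1 × 50 mm, 1.8 μm) at 100 μL/min using water and acetonitrile, each with 0.1% formic acid. Detection used a quadrupole time-of-flight mass spectrometer in positive and negative ionization mode, and data collection spanned 3 months. Retention time was obtained from adduct peaks picked computationally and each checked manually.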

SMILES | RP-LC retention time [s]
COCc1nc(CCNC(=O)C2CCC2)no1 | 609
CN1C(=O)c2cccc3c(C(=O)c4ccccc4)ccc(c23)C1=O | 921
O=C(NCCc1ccc(N2CCCC2)cc1)C(=O)Nc1ccc2c(c1)OCCO2 | 844
CCOc1ccc(CN2C[C@@H](COC)[C@H](c3ccncc3)C2)cc1OC | 560
O=C(NCCN1CCN(c2ccccc2F)CC1)C1CCCN(c2nc3cccnc3s2)C1 (stereo unspecified) | 632
Cc1ccc(OCC(=O)NCC2CCN(Cc3ccncc3)CC2)cc1 | 543
Cn1c(=O)n(C)c2cc(N3CCOCC3)c(NC(=O)Cc3ccccc3)cc21 | 752
COc1ccccc1-c1noc(-c2nn(-c3ccc(F)c(F)c3)ccc2=O)n1 | 807
Cc1cccc(CN2C(=O)N(c3cccc(F)c3)c3ncccc3S2(=O)=O)c1 | 1050
CC(C)Oc1ccccc1CN1CCC2(CC1)CC(C)(O)CCO2 (stereo unspecified) | 627
CC(CCc1ccccc1)NC(=O)c1cc2sccc2n1Cc1ccc(F)cc1 (stereo unspecified) | 1190
COc1ccc(NC(=O)Cn2ccnc2-c2ccnc(N3CCOCC3)c2)cc1Cl | 631
O=C(Nc1cnn(-c2ncncc2N2CCCC2)c1)c1ccc(C(F)(F)F)cc1 | 779
COCCNC(=O)c1csc(N2CCN(c3ccc(F)cc3)CC2)n1 | 869
CCOC(=O)c1c(C)[nH]c(CCC(=O)NC(C)c2ccc3c(c2)OCCO3)c1C (stereo unspecified) | 854
CCC(=O)N1CCN(c2nc3c(s2)CC(C(=O)Nc2ccc(Cl)c(C)c2)CC3)CC1 (stereo unspecified) | 607
CCCCCCNCc1ccc2c(c1)n(C)c(=O)n2C | 604
O=C(NCc1ccc(-c2noc(CCc3ccccc3)n2)s1)C1CC1 | 915
Cc1oc(-c2ccccc2)nc1Cn1ccn2nc(-c3ccc4c(c3)OCO4)cc2c1=O | 1060
Nc1nnc(SCc2nnc(-c3ccc4c(c3)OCO4)o2)s1 | 630
CCOC(=O)c1ccc(NC(=O)Cn2nc(N3CCCC(C)C3)c3ccccc3c2=O)cc1 (stereo unspecified) | 1200
O=C1OC(=O)C2C3CCC(O3)C12 (stereo unspecified) | 559
O=C(Nc1cccc(F)c1)[C@@H]1OCC(=O)N(C2CC2)[C@H]1c1ccccc1 | 849
CC1(CNC(=O)c2ccc(Br)cc2)CCOCC1 | 784
CCCN1CCN(C(=O)c2cn3ccnc(-c4ccccc4)c3n2)CC1 | 706
COc1cc(NC(=O)Cc2csc3nc(-c4ccccc4)cn23)cc(OC)c1OC | 749

SMILES | RP-LC retention time [s]
Cc1cccc(-c2noc(Cn3ncn4nc(-c5ccc(F)cc5)cc4c3=O)n2)c1 | 1150
Cc1cc(C)cc(C(=O)N2CCC(n3c(-c4ccoc4)nc4cccnc43)C2)c1 (stereo unspecified) | 804
CN(C)C(=O)OCC1COc2ccccc2O1 (stereo unspecified) | 883
O=C(CN1CCC(c2nc(-c3cccs3)no2)CC1)N1CCN(c2ccccc2)CC1 | 702
CCOc1ccc(-c2ccc(=O)n(Cc3nc(-c4ccccc4)no3)n2)cc1 | 1040
O=C(Cc1nnc2cc(-c3nc(C4CC4)no3)ccn12)N1CCc2ccccc2C1 | 780
O=C(NCCc1c[nH]c2ccc(Cl)cc12)c1cc2n(n1)CCCN(Cc1ccc(Cl)cc1)C2=O | 998
O=C(NC1CCN(Cc2ccccc2)CC1)C1CCCN(c2ncc(-c3ccccc3)cn2)C1 (stereo unspecified) | 720
O=C(NCC1CCOCC1)c1ccc2[nH]ccc2c1 | 742
COc1ccc(NC(=O)Cn2c(=O)n(-c3ccccc3)c(=O)c3c2cc(C)n3C)c(OC)c1 | 791
CC1CC(=O)c2cnc(N3CCN(C)CC3)nc2C1 (stereo unspecified) | 564
CN1C(=O)C(c2c(-c3ccc(Cl)cc3)[nH]c3[nH]c(=O)[nH]c(=O)c23)c2ccccc21 (stereo unspecified) | 716
O=C(CCCCCN1CCN(c2ccccc2-c2ccccc2)CC1)NC1CCCc2ccccc21 (stereo unspecified) | 926
COc1ccccc1CNc1c(-c2cc(OC)c(OC)c(OC)c2)nc2ncccn12 | 714
O=C(NCc1ccc2c(c1)OCO2)c1ccc2ncnc(N3CCCC3)c2c1 | 630
COc1ccccc1-c1[nH]ncc1CN1CC(F)(F)C[C@H]1CN1CCOCC1 | 555
Cc1cc(C)c(NC(=O)Cn2nc3c(Oc4ccccc4C)nccn3c2=O)c(C)c1 | 894
O=C(Cn1nc(N2CCSCC2)c2ccccc2c1=O)Nc1ccccc1C(F)(F)F | 979
O=C(CSc1nncc2ccccc12)NCCc1ccccc1 | 687
Fc1ccc(CN2CCC(Cc3nc(-c4cccnc4)n[nH]3)C2)c(F)c1 (stereo unspecified) | 564
CCc1nnc(C2CCN(C(=O)c3cc(C)on3)CC2)s1 | 624
O=C(Cc1csc(-n2cccc2)n1)Nc1ccc(-n2cnnn2)cc1 | 731
COc1ccc2c(c1)CC(NC(=O)NCCCN1CCN(Cc3ccccc3)CC1)CO2 (stereo unspecified) | 634
O=C(NCc1ccccc1F)c1ccc2c(c1)CN(CC1=Cc3ccccc3OC1)CCO2 | 755
Cc1cccc2c(=O)c3c([nH]c12)CCN(CC(=O)NCc1ccccc1)C3 | 601

Other lines, results leading:

RP-LC retention time [s] | SMILES
775 | Cc1cc(NC(=O)c2cc(Cl)ccc2Cl)n(C(C)C)n1
550 | CN(C)c1ccc(CNC(=O)C2CCN(S(=O)(=O)c3cn(C)cn3)CC2)cc1
688 | CN(Cc1nc2cc(C(=O)N3CCCC3)ccc2n1C)C(=O)Nc1ccc2c(c1)OCCO2
717 | CCOC(=O)Nc1ccccc1NC(=O)OCC
1020 | CCCNc1nc(-c2cccc(Cl)c2)cs1
885 | COc1ccc(-c2noc(C3CC(=O)N(c4ccc(C)cc4)C3)n2)cc1OC (stereo unspecified)
887 | CS(=O)(=O)Nc1ccc(C2(C(=O)NCc3cccc(F)c3)CCCCC2)cc1
1040 | CC1Oc2ccccc2N(Cc2nc(-c3ccccc3)no2)C1=O (stereo unspecified)
597 | CCC(=O)N(C)CCc1noc(-c2ccc(C(=O)NCCN(CC)CC)cc2)n1
844 | CCOC(=O)Cn1cccc1-c1nc(-c2ccncc2)no1
668 | Cc1ccc2nc(C(=O)NCc3ccc(F)cc3F)cn2c1
370 | CNc1cc(NS(=O)(=O)c2ccc(N)cc2)nc(NC)n1
714 | CC(C)n1c(=O)c(NCc2ccccc2C(F)(F)F)nc2ccncc21
896 | COc1cccc(-c2noc(C3CCCN3C(=O)Nc3ccc4c(c3)OCO4)n2)c1 (stereo unspecified)
1040 | COc1ccccc1NC(=O)N1CCOc2ccc(C)cc21
916 | O=C(Nc1ccc(N2CCN(C3CCCC3)C2=O)nc1)c1ccc(F)c(F)c1
757 | CCCCN(Cc1nc2nc(C)cc(C)n2n1)C(=O)c1ccccc1
647 | O=C(Cn1nc2nc(N3CCCC3)ccn2c1=O)Nc1ccc2c(c1)OCO2
754 | CC1CCN(C(=O)Cn2nc3nc(Nc4ccc(F)cc4)ccn3c2=O)CC1
671 | CCOc1ccc(S(=O)(=O)NC2CCN(c3ccc(=O)[nH]n3)C2)cc1 (stereo unspecified)

RP-LC retention time [s] | SMILES
926 | Cc1ccc(NS(=O)(=O)c2ccc(-c3nnc(C4CCC4)o3)o2)cc1
1060 | Cc1cc(C)cc(-c2nc(-c3ccc4c(c3)oc(=O)n4C)no2)c1
701 | CCN1C(=O)CCc2cc(NC(=O)c3ccn(CC)n3)ccc21
698 | CCn1ccc(C(=O)Nc2ccc3c(c2)Sc2ncccc2C(=O)N3C)n1
944 | CCn1cc(C(=O)NCc2ccc(C)cc2)c(S(=O)(=O)N2CCSCC2)n1
1080 | COc1cccc(N2CC(C)Cn3c2nc2c3c(=O)n(Cc3c(F)cccc3Cl)c(=O)n2C)c1 (stereo unspecified)
1170 | Cc1cccc(-c2nc(Cc3noc(COc4ccccc4)n3)c(C)o2)c1
712 | COc1cccc(-c2nc(NCC3CCCO3)ncc2C(=O)O)c1 (stereo unspecified)
767 | Cc1cc(C(=O)Nc2nnc(SCC(=O)Nc3ccccc3C(F)(F)F)s2)no1
808 | CCn1cc(S(=O)(=O)NC2CCCC2)c2cccnc21
811 | COc1cc(-c2nc3ncccn3c2NCc2ccc(C)cc2)ccc1OC(C)C
959 | CCc1noc(NC(C)=O)c1-c1ccc(C)c(S(=O)(=O)NC2CCCCCCC2)c1
743 | COc1ccc(CNC(=O)c2cn(-c3cc(N(C)C)ncn3)cn2)cc1
806 | Cc1ccccc1CC(=O)Nc1ccc2c(c1)Sc1ncccc1C(=O)N2C
554 | COc1cccc(-c2nc3cnccn3c2NCCC(=O)NC2CCN(C)CC2)c1
656 | CC(C)OCCCNC(=O)c1ccc2cnn(Cc3ccc(F)cc3)c2c1
758 | COC(=O)CC(=O)Nc1nnc(SCc2nnc(-c3ccccc3C)o2)s1
1210 | O=S(=O)(c1ccc(-c2noc(-c3ccc(F)c(F)c3)n2)cc1)N1CCCC1
649 | CCn1cc(CCNC(=O)Nc2ccc(OC)cc2OC)c2cccnc21
706 | Cc1ccc(NC(=O)C2CCN(S(=O)(=O)c3cn(C)cn3)CC2)c(C)c1
